The target of one assay is AMSH (Homo sapiens (Human), UniProt O95630). Description: AMSH activity assay (DiUb^K63TAMRA cleavage, fluorescence). The assay is classed as biochemical. As to conditions: Table 2. The source says:
AMSH Activity Assay. AMSH is known to selectively cleave ubiquitin chains in which the ubiquitins are joined via K63 of the proximal ubiquitin linked by an isopeptide bond to the carboxy terminus of the distal ubiquitin. […] In brief, DiUb^K63TAMRA was labeled with quench pairs TAMRA/QXL.

In another assay the target is Csn5 (Homo sapiens (Human), UniProt Q92905). Description: Csn5 activity assay (fluorescence polarization, SCF^skp2-Nedd8OG, COP9 Signalosome Complex). The assay is classed as biochemical. As to conditions: Table 2. The method, then:
Csn5 Activity Assay. […] In brief, a fluorescent substrate termed SCF^skp2-Nedd8OG was produced to measure CSN5 activity in vitro. This assay measures the decrease in fluorescence polarization due to the decrease in apparent molecular weight of Oregon Green (OG) fluorophore (from the ˜175 kDa substrate to ˜9 kDa Nedd8OG) as a result of Csn5-mediated cleavage of the isopeptide bond that links Nedd8OG to SCF^Skp2. The assay was performed in a low-volume 384 well solid black plate comprising equal volumes of compound, substrate (SCF^skp2-Need8OG) and enzyme (purified COP9 Signalosome Complex, CSN). Fluorescence polarization was recorded using the same setting as for the Rpn11 activity assay.

For another assay, the system named is Ub^G76V-GFP. Description: Reporter degradation assay in Hela cells expressing Ub^G76V-GFP. The assay is classed as cell-based. As to conditions: Homo sapiens, after MG132 removal, cycloheximide chase. The method, then: Characterization of the Compound Activity in Cells. […] After 4 hours, MG132 was removed and a cycloheximide (CHX) chase was initiated +/− different concentrations of test compound and the rate of reporter degradation was evaluated by monitoring GFP fluorescence by high throughput microscopy. The rate of fluorescence decrease was normalized to DMSO control and analyzed using does-response equation.

Assay [1] concerns the target T1, Rpn11 (Homo sapiens (Human), UniProt O00487). Description: Rpn11 activity assay (fluorescence polarization, Ub4-pepOG cleavage by 26S proteasome). In kind it is biochemical. As to conditions: for Rpn11 assay activity (in words): screening, compared with 8TQ. The source says: Candidate compounds according to embodiments of the present invention were synthesized as described herein. […] In brief, this Rpn11 bioassay employs a fluorescent polarization readout based on the ability of the 26S proteasome to cleave the protein substrate including four tandem ubiquitin proteins fused to a peptide having a unique cysteine labeled with a fluorophore. Cleavage of this substrate by Rpn11 at the junction between the fourth ubiquitin and the peptide, releases the low molecular weight fluorescent peptide. Accordingly, inhibition of fluorescence correlates with inhibition of Rpn11. Inhibition is reported as the half maximal inhibitory concentration (IC50) for the candidate compound.
Rpn11 Activity Assay. […] In brief, in order to measure the Rpn11 activity, a synthetic peptide substrate, termed Ub4-pepOG, was engineered. […] Peptide substrate Ub4-pepOG consists of only 30 amino acids and therefore the decrease of polarization is mainly from deubiquitination but not the proteolysis of the peptide. Fluorescence polarization assay was performed in a low-volume 384 well solid black plate where the components are added in the follow sequence: 1) 5 μl compound in 3% DMSO or 3% DMSO control 2) 5 μl 26S proteasome (Enzo Life Sciences Inc, NY). […] Fluorescence polarization is measured using a PHERAstar (BMG labtech, Ortenberg, Germany) plate reader with excitation of 480 nm and emission of 520 nm filter set. […] Rpn11 activity was normalized to DMSO control and fitted using does-response curve.

Assay [2] addresses T1, Rpn11. The description is as above. In kind it is biochemical. As to conditions: does not inhibit Csn5 or AMSH with the same potency as Rpn11.
The mark [3] stands for this setting: Table 2, 1 mM DTT in assay reduces disulfides to monomeric active species.
[4] abbreviates: Table 1, metal binding pharmacophore fragments.

Structures are written as SMILES.

Chain of AMSH (O95630 whole entry): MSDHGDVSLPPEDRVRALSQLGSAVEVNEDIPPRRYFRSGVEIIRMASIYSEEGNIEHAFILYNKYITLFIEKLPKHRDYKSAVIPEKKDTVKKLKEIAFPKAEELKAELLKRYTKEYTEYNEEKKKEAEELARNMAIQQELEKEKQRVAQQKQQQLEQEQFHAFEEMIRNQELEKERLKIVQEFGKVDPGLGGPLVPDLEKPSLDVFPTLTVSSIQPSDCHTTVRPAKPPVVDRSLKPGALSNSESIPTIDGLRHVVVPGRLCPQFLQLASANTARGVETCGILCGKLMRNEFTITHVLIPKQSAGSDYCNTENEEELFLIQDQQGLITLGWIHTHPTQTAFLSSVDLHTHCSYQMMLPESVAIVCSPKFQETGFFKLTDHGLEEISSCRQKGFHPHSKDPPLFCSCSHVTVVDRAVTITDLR
T1 sequence (O00487 whole entry, looked up, the tested form may be a part): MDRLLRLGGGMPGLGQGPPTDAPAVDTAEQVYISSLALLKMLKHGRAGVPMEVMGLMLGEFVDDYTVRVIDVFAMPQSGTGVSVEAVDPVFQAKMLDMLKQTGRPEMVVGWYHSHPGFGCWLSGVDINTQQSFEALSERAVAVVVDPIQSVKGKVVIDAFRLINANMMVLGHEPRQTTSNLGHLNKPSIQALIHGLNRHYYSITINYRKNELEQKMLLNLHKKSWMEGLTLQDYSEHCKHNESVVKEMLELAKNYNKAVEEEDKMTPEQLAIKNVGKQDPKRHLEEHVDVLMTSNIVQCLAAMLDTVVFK

Take `O=C(NCc1cccnc1)c1cnc2c(SSc3cccc4cc(C(=O)NCc5cccnc5)cnc34)cccc2c1` [Compound 14, 8,8′-Disulfanediylbis(N-(pyridin-3-ylmethyl)quinoline-3-carboxamide)]: the half-maximal inhibitory concentration (IC50) against AMSH is 3.52 µM; against Csn5, 128 µM; with Ub^G76V-GFP it was over 10 µM; on Rpn11 [1] (setting [3]), 3.1 µM.
Turning to `O=C(Nc1nccs1)c1cnc2c(SSc3cccc4cc(C(=O)Nc5nccs5)cnc34)cccc2c1` [Compound 5, 8,8′-Disulfanediylbis(N-(thiazol-2-yl)quinoline-3-carboxamide)], the IC50 was determined as 3.3 µM on AMSH and 32 µM at Csn5. Besides, at Rpn11 [2], the “specificity for Rpn11 versus Csn5 and/or AMSH (in words)” value was “specific inhibitors of Rpn11”.
Take `CNC(=O)c1cnc2c(SSc3cccc4cc(C(=O)NC)cnc34)cccc2c1` [Compound 2, 8,8′-Disulfanediylbis(N-methylquinoline-3-carboxamide)]: the concentration for half-maximal inhibition (IC50) at AMSH worked out at 4.8 µM; at Csn5, 68 µM.
With `Sc1cccc2ccccc12` [reference compound], the IC50 on Rpn11 [1] (setting [4]) was over 100 µM.
As for `O=C(NCc1nccs1)c1cnc2c(SSc3cccc4cc(C(=O)NCc5nccs5)cnc34)cccc2c1` [Compound 9, 8,8′-Disulfanediylbis(N-(thiazol-2-ylmethyl)quinoline-3-carboxamide)], the IC50 at AMSH came to 7.8 µM; at Csn5, 23 µM. At Rpn11 [2], the “specificity for Rpn11 versus Csn5 and/or AMSH (in words)” value was “specific inhibitors of Rpn11”.
For the compound `O=C(NCC1CCCO1)c1cnc2c(SSc3cccc4cc(C(=O)NCC5CCCO5)cnc34)cccc2c1` (stereo not drawn) [Compound 6, 8,8′-Disulfanediylbis(N-((tetrahydrofuran-2-yl)methyl)quinoline-3-carboxamide)], the IC50 was 6.8 µM against AMSH, 41.3 µM on Csn5 and 4.6 µM against Rpn11 [1] (setting [3]).
The corresponding values for `O=C(NCc1ccco1)c1cnc2c(SSc3cccc4cc(C(=O)NCc5ccco5)cnc34)cccc2c1` [Compound 7, 8,8′-Disulfanediylbis(N-(furan-2-ylmethyl)quinoline-3-carboxamide)] are 0.9 µM, 0.2 µM and 0.9 µM.
In turn, `Oc1cccc2cccnc12` [reference compound] had an IC50 at Rpn11 [1] (setting [4]) of over 100 µM.
In the case of `O=C(CCCC[C@@H]1SC[C@@H]2NC(=O)N[C@@H]21)NCCOCCOCCOCCNC(=O)c1cnc2c(S)cccc2c1` [Compound 32], the IC50 against AMSH is 0.4 µM; against Csn5, 13.8 µM; with Ub^G76V-GFP, 4.1 µM; against Rpn11 [1] (setting [3]), 0.4 µM.
As for `O=C(NCCN1CCOCC1)c1cnc2c(SSc3cccc4cc(C(=O)NCCN5CCOCC5)cnc34)cccc2c1` [Compound 22, 8,8′-Disulfanediylbis(N-(2-morpholinoethyl)quinoline-3-carboxamide)], the IC50 against AMSH was 25.4 µM; on Csn5 it was 99 µM; in the assay on Ub^G76V-GFP, over 10 µM; at Rpn11 [1] (setting [3]) it was 6.4 µM.
Turning to `O=C(NCc1ccc(N2CCOCC2)cc1)c1cnc2c(SSc3cccc4cc(C(=O)NCc5ccc(N6CCOCC6)cc5)cnc34)cccc2c1` [Compound 21, 8,8′-Disulfanediylbis(N-(4-morpholinobenzyl)quinoline-3-carboxamide)], the IC50 was over 10 µM in the assay with Ub^G76V-GFP and 0.8 µM at Rpn11 [1] (setting [3]).
Take `O=C(NCc1ccccn1)c1cnc2c(SSc3cccc4cc(C(=O)NCc5ccccn5)cnc34)cccc2c1` [Compound 13, 8,8′-Disulfanediylbis(N-(pyridin-2-ylmethyl)quinoline-3-carboxamide)]: the IC50 is 16.7 µM against AMSH, 56.7 µM against Csn5, over 10 µM with Ub^G76V-GFP and 3.9 µM against Rpn11 [1] (setting [3]).
At Rpn11 [1] (setting [4]), `Sc1cccc2cccnc12` [Compound 8TQ, 8-thioquinoline, reference compound] came in with an IC50 of 2.8 ± 0.35 µM. The “Rpn11 assay activity (in words)” value at Rpn11 [1] is “highly potent fragment”.
With `Cc1ccc2cccc(S)c2n1` [Compound 9c, 2-Methylquinoline-8-thiol], at Rpn11 [1], the “Rpn11 assay activity (in words)” value was “less active than 8TQ”.
Take `O=C(NCc1cccs1)c1cnc2c(SSc3cccc4cc(C(=O)NCc5cccs5)cnc34)cccc2c1` [Compound 8, 8,8′-Disulfanediylbis(N-(thiophen-2-ylmethyl)quinoline-3-carboxamide)]: the IC50 against AMSH was 1.3 µM; against Csn5, 16 µM; against Rpn11 [1] (setting [3]), 0.8 µM.
In the case of `O=C(O)c1ccc2cccc(SSc3cccc4ccc(C(=O)O)nc34)c2n1` [Compound 14b, 8,8′-Disulfanediylbis(quinoline-2-carboxylic acid)], the “Rpn11 assay activity (in words)” value on Rpn11 [1] is “less active than 8TQ”.
`Sc1ccnc2cccnc12` [Compound 8e, 1,5-Naphthyridine-4-thiol] came in with an IC50 on Rpn11 [1] (setting [4]) of 15 µM. This counts as double-digit micromolar.
Turning to `O=C(NCCc1nccs1)c1cnc2c(SSc3cccc4cc(C(=O)NCCc5nccs5)cnc34)cccc2c1` [Compound 12, 8,8′-Disulfanediylbis(N-(2-(thiazol-2-yl)ethyl)quinoline-3-carboxamide)], on Rpn11 [2], the “specificity for Rpn11 versus Csn5 and/or AMSH (in words)” value is listed as “specific inhibitors of Rpn11”. Also, the IC50 against Csn5 worked out at 30 µM; with Ub^G76V-GFP, 0.57 µM.
On to `Sc1cccc2ncccc12` [reference compound], for which the IC50 at Rpn11 [1] (setting [4]) is over 100 µM.
For the compound `Nc1cccc2cccnc12` [reference compound], on Rpn11 [1] (setting [4]), the IC50 was over 100 µM.
With `O=C(NCc1ccccc1)c1cnc2c(SSc3cccc4cc(C(=O)NCc5ccccc5)cnc34)cccc2c1` [Compound 16, 8,8′-Disulfanediylbis(N-benzylquinoline-3-carboxamide)], the IC50 at AMSH is 15 µM; at Csn5, 11 µM; in the assay with Ub^G76V-GFP it was over 10 µM; against Rpn11 [1] (setting [3]) it was 1.1 µM.
`Cc1cccc2cccnc12` [reference compound] showed an IC50 at Rpn11 [1] (setting [4]) of over 100 µM.
In the case of `O=C(NCc1cccs1)c1ccc2cccc(SSc3cccc4ccc(C(=O)NCc5cccs5)nc34)c2n1` [8,8′-Disulfanediylbis(N-(thiophen-2-ylmethyl)quinoline-2-carboxamide)], on Rpn11 [1], the “Rpn11 assay activity (in words)” value is “less active than 8TQ”.
Take `O=C(NCc1ccc2c(c1)OCO2)c1cnc2c(SSc3cccc4cc(C(=O)NCc5ccc6c(c5)OCO6)cnc34)cccc2c1` [Compound 20, 8,8′-Disulfanediylbis(N-(benzo[d][1,3]dioxol-5-ylmethyl)quinoline-3-carboxamide)]: the figures for the IC50 against Csn5, with Ub^G76V-GFP and against Rpn11 [1] (setting [3]) were 7 µM, over 10 µM and 0.9 µM, respectively.
Consider `COC(=O)c1ccc2cccc(SSc3cccc4ccc(C(=O)OC)nc34)c2n1` [Dimethyl 8,8′-disulfanediylbis(quinoline-2-carboxylate)], for which the “Rpn11 assay activity (in words)” value on Rpn11 [1] is given as “less active than 8TQ”.
Still for that read-out and setting: the value for `O=C(NCc1ccccc1)c1ccc2cccc(SSc3cccc4ccc(C(=O)NCc5ccccc5)nc34)c2n1` [8,8′-Disulfanediylbis(N-benzylquinoline-2-carboxamide)] was “less active than 8TQ”.
In turn, `CSc1cccc2cccnc12` [reference compound] displayed an IC50 at Rpn11 [1] (setting [4]) of over 100 µM.
`O=C(NCCc1ccco1)c1cnc2c(SSc3cccc4cc(C(=O)NCCc5ccco5)cnc34)cccc2c1` [Compound 10, 8,8′-Disulfanediylbis(N-(2-(furan-2-yl)ethyl)quinoline-3-carboxamide)]: the results for the IC50 against AMSH, on Csn5 and with Ub^G76V-GFP were 1.7 µM, 6.9 µM and 1.4 µM, respectively.
As to `O=C(NCCc1cccs1)c1cnc2c(SSc3cccc4cc(C(=O)NCCc5cccs5)cnc34)cccc2c1` [Compound 11, 8,8′-Disulfanediylbis(N-(2-(thiophen-2-yl)ethyl)quinoline-3-carboxamide)], the IC50 stood at 1.3 µM on AMSH, 4 µM at Csn5 and 0.3 µM on Rpn11 [1] (setting [3]). Moreover, the “specificity for Rpn11 versus Csn5 and/or AMSH (in words)” value at Rpn11 [2] is listed as “specific inhibitors of Rpn11”.

These data come from patent publication US10005735B2, “Inhibitors of RPN11” (California Institute of Technology, priority 2015, dated 2018).
